The source of these data is PMC6237158, “HPLC–UV assay for the evaluation of inhibitors of plasma amine oxidase using crude bovine plasma” (Journal of Enzyme Inhibition and Medicinal Chemistry, 2018).

Where two headings read alike, the source gives them in different places.

The target of assay [1] is T1, purified bovine PAO (Bos taurus, UniProt Q29437).
T1 construct: bovine PAO purified from bovine plasma; purchased Abnova, Taipei, Taiwan delivered via Biozol, Eching, Germany; host or cells: bovine plasma
T1 sequence (Q29437 17-762): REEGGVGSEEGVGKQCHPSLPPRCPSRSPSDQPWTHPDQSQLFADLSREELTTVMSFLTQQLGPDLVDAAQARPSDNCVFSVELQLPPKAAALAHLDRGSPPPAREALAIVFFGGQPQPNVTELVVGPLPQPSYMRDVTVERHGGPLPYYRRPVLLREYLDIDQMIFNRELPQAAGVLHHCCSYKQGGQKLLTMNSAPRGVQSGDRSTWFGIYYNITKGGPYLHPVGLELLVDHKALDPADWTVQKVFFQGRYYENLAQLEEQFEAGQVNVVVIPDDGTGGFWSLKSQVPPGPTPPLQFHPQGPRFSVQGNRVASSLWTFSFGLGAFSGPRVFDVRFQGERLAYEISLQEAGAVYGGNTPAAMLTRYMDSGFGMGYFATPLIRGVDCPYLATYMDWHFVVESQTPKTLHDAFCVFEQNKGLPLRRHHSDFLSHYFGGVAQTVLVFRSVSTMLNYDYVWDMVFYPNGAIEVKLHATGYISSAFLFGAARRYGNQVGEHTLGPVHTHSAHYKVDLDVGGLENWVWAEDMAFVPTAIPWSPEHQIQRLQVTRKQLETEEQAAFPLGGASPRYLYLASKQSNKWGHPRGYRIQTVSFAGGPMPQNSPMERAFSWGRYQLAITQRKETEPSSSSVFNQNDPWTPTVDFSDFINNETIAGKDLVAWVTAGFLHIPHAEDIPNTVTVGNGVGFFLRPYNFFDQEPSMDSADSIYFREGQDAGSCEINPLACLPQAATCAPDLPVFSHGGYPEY
Set-up: method as in PMID 27129976. Conditions: without pre-incubation, n = 3, cited from earlier work.

Assay [2] deals with T2, PAO in bovine plasma (Bos taurus, UniProt Q29437).
T2 construct: crude bovine plasma can be used as enzyme source in this assay instead of the purified enzyme; tissue Coesfelder Fleischhandelsgesellschaft, Bernd Grewe (Coesfeld, Germany); host or cells: heparinised bovine blood plasma
T2 sequence (Q29437 17-762): T1 sequence (Q29437 17-762)
Kind of assay: Inhibitor screening without pre-incubation of bovine plasma with the inhibitor (HPLC-UV). The class given is biochemical. As to conditions: n = 3. The procedure: Determination of the IC50-values of the PAO inhibitor 2-(4-phenylphenyl)acetohydrazide (16) with bovine plasma using different substrates.
General procedure for inhibitor screening without pre-incubation of bovine plasma with the inhibitor. A mixture of a DMSO solution of 4 (10 mM) (2.5 µL), a DMSO solution of the appropriate inhibitor (concentration variable) (2.5 µL) and PBS buffer (pH 7.4) (89 µL) was treated with bovine plasma (6 µL). After incubation at 37 °C for 45 min, the enzyme reaction was terminated by the addition of acetonitrile (100 µL). The sample was cooled in an ice bath for 10 min and centrifuged at 12,000 × g and 10 °C for 5 min. An aliquot of the supernatant (150 µL) was diluted with aqueous TRIS buffer (100 mM, pH 8.5 at 20 °C) (150 µL), allowed to stand at room temperature for 30 min, and analysed by HPLC. The HPLC–UV-system consisted of a Thermo Scientific Dionex UltiMate 3000 system including an autosampler and a variable wavelength detector (ThermoFisher Scientific, Germering, Germany). Separation was achieved on a Luna 3 u C8(2) analytical column (3 mm inside diameter× 150 mm, particle size 3 µm) (Phenomenex, Aschaffenburg, Germany) protected with a Phenomenex Phenyl guard column (3 mm inside diameter ×4 mm). The injection volume was 50 µL. Temperature of the autosampler was set to 10 °C, the temperature of the column oven was 20 °C. HPLC analysis was run isocratically using acetonitrile/aqueous TRIS buffer (50 mM, pH 8.5 at 20 °C) (35:65, v/v) as eluent at a flow rate of 0.4 mL/min. […] Controls with DMSO (2.5 µL) instead of a DMSO solution of the inhibitor (2.5 µL) were prepared in the same manner in parallel (n = 3). Furthermore, a blank incubation, in which the enzyme solution was replaced by the buffer used for dissolving the enzyme, was carried out. The relative inhibition values were determined at different inhibitor concentrations and calculated as the ratio of the areas of the 1,3-oxazolidine 15 peaks formed in presence and absence of the test compounds (corrected by the blank value). […] The experiments using benzylamine (7) as substrate were carried out in the same way with the modifications that aliquots (150 µL) of the supernatants obtained after addition of acetonitrile and centrifugation were diluted with water (150 µL) and acetonitrile/aqueous ammonium acetate solution (10 mM, pH 6) (45:55, v/v) was used as eluent at a detection wavelength of 250 nm.

In general, IC50 refers to the concentration at which inhibition is half-maximal. Regarding `NNC(=O)Cc1ccc(-c2ccccc2)cc1` [Compound 16, 2-(4-phenylphenyl)acetohydrazide], the half-inhibitory concentration (IC50) in assay [1] (substrate 4-(5-phenyl-2H-tetrazol-2-yl)butan-1-amine (2)) is 2.5 ± 0.3 µM; in assay [1] (substrate 5-(5-phenyl-2H-tetrazol-2-yl)pentan-1-amine (3)), 5.4 ± 0.09 µM; in assay [1] (substrate 6-(5-phenyl-2H-tetrazol-2-yl)hexan-1-amine (4)) it was 11 ± 1.2 µM; in assay [1] (substrate 8-(5-phenyl-2H-tetrazol-2-yl)octan-1-amine (6)), 11 ± 0.85 µM; in assay [1] (substrate benzylamine (7)), 0.12 ± 0.03 µM; in assay [2] (substrate 4-(5-phenyl-2H-tetrazol-2-yl)butan-1-amine (2), without pre-incubation), 5.3 ± 0.49 µM. Further, the IC50 in assay [2] (substrate 5-(5-phenyl-2H-tetrazol-2-yl)pentan-1-amine (3), without pre-incubation) was 9.7 ± 0.78 µM; in assay [2] (substrate 8-(5-phenyl-2H-tetrazol-2-yl)octan-1-amine (6), without pre-incubation), 16 ± 3.4 µM; in assay [2] (substrate benzylamine (7), without pre-incubation of enzyme and inhibitor), 0.29 ± 0.07 µM; in assay [2] (substrate hexan-1-amine 4, without pre-incubation of enzyme and inhibitor), 17 ± 0.8 µM.
